The text below walks through data of ChEMBL document CHEMBL1201862, “PubChem BioAssay data set” (2004).

Holding throughout (experiment): inhibition of tumour cell growth, NCI panel, 48 h
The subject of assay [1] is NCI-H460.
For assay [2], the system named is UACC-257.
Assay [3] deals with COLO 205.
In assay [4] the test system is SF-268.
Assay [5] concerns OVCAR-5.
Assay [6] relates to SK-MEL-28.
In assay [7] the test system is OVCAR-3.
Assay [8] concerns CCRF-CEM.
Assay [9] concerns HOP-92.
Assay [10] deals with LOX IMVI.
Assay [11] deals with SR.
The test system of assay [12] is Malme-3M.
The test system of assay [13] is HCT-15.
Assay [14] has as its system A498.
For assay [15], the system named is OVCAR-4.
The test system of assay [16] is NCI-H226.

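Compound exposure: 48 hours, 5 concentrations, 96-well plates. Abbreviation: GI50, concentration required for 50% inhibition of growth.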 The source made the active and inactive calls. Rule as the data show it: active = GI50 up to about 1.1 µM and inactive = higher.

Turning to `COC(=O)C(Cc1cc(OC)c(OC)c(OC)c1)C(=O)OC`, the GI50 in [1], in assay [2], in assay [3], in assay [4], in assay [5] and in [6] was > 320 µM (inactive) throughout. In addition, the GI50 in assay [7], in assay [8], in assay [9], in assay [10], in [11] and in assay [12] was > 320 µM (inactive) each time. This compound yielded a GI50 in assay [13] greater than 320 µM.
Regarding `COc1cccc(NC(=O)/C(CC(=O)CC(c2ccccc2)c2c(O)c3ccccc3oc2=O)=N\NC(C)(C)C)c1OC` (centres undefined), the GI50 in assay [1], in assay [14], in [2], in assay [3], in assay [4] and in assay [5] was > 100 µM (inactive) in each case. Also, the GI50 in assay [6] was > 100 µM (inactive); in assay [15] it was > 100 µM (inactive); in assay [7], 78.9 µM (inactive); in assay [8], 25.7 µM (inactive); in assay [9], 17.6 µM (inactive); in [10], 36.9 µM (inactive). For the same compound, the GI50 is > 100 µM (inactive) in [12] and 28.4 µM in assay [13].
For `CCOC(=O)/C=C1\Nc2ccccc2C(c2ccccc2)=NC1OC(C)=O` (centres undefined), the GI50 in assay [1], in [14], in [2], in assay [3], in assay [4] and in assay [6] was > 100 µM (inactive) each time. The GI50 in assay [15] is > 100 µM (inactive); in [7] it was > 100 µM (inactive); in assay [8], > 100 µM (inactive); in [9], 32.1 µM (inactive); in assay [10], > 100 µM (inactive); in assay [11], 99.1 µM (inactive). Further, the results for the GI50 in [12] and in assay [13] were > 100 µM (inactive) and greater than 100 µM, respectively.
For `O=C(N/C(=C\c1ccc(/C=C(\NC(=O)c2ccccc2)c2nc3cc([N+](=O)[O-])ccc3[nH]2)cc1)c1nc2cc([N+](=O)[O-])ccc2[nH]1)c1ccccc1`, the GI50 in assay [14] was 26 µM (inactive); in assay [2], 47.8 µM (inactive); in assay [3], 29.8 µM (inactive); in assay [4], 22.1 µM (inactive); in assay [5], > 100 µM (inactive); in assay [6], 14.8 µM (inactive). For the same compound, the GI50 is 39.5 µM (inactive) in assay [15]; 39.6 µM (inactive) in assay [7]; 20.8 µM (inactive) in assay [8]; 35.2 µM (inactive) in assay [9]; 28.8 µM (inactive) in [10]; > 100 µM (inactive) in assay [12]. In addition, in assay [13], the GI50 is 49.8 µM.
Consider `Cc1cn2cc(-c3ccncc3)nc2s1`, for which the GI50 was > 100 µM (inactive) in assay [1]; > 100 µM (inactive) in [14]; > 100 µM (inactive) in assay [2]; > 71.8 µM (inactive) in assay [3]; > 100 µM (inactive) in [4]; > 100 µM (inactive) in assay [16]. The GI50 was > 100 µM (inactive) in assay [5]; > 100 µM (inactive) in assay [6]; > 82 µM (inactive) in [15]; > 100 µM (inactive) in assay [7]; > 52.7 µM (inactive) in assay [8]; > 100 µM (inactive) in assay [9]. Also, the figures for the GI50 in assay [10], in [12] and in assay [13] were > 49.8 µM (inactive), > 100 µM (inactive) and 98.6 µM, respectively.
Regarding `O=C1CCC2(c3ccccc3)Nc3ccc(Cl)cc3N12` (centres undefined), the GI50 in assay [1], in [14], in assay [2], in assay [3], in assay [4] and in [16] was > 100 µM (inactive) throughout. Further, the GI50 in assay [5] is > 100 µM (inactive); in assay [6] it was > 100 µM (inactive); in assay [15], > 100 µM (inactive); in assay [7], > 100 µM (inactive); in assay [8] it was > 100 µM (inactive); in assay [9], 84.5 µM (inactive). In addition, the GI50 is > 100 µM (inactive) in assay [10], > 100 µM (inactive) in assay [12] and greater than 100 µM in [13].
Take `Cc1ccc(NC(=O)CSc2nnc(Cc3ccccc3)o2)c(C)c1`: the GI50 in assay [1], in assay [2], in assay [3], in assay [4], in assay [16] and in assay [6] was > 100 µM (inactive) each time. Further, the GI50 in assay [15] was > 100 µM (inactive); in assay [8], > 100 µM (inactive); in [10] it was > 100 µM (inactive); in [11], > 100 µM (inactive); in assay [12], > 100 µM (inactive); in assay [13], greater than 100 µM.
Turning to `c1ccc2c(c1)nnn1c3cnccc3nc21`, the GI50 was 16 µM (inactive) in assay [1]; 94 µM (inactive) in assay [14]; 85.1 µM (inactive) in assay [2]; 20.7 µM (inactive) in [3]; 37.8 µM (inactive) in assay [4]; 63.8 µM (inactive) in assay [5]. Further, the GI50 in [6] is > 100 µM (inactive); in assay [15] it was 29 µM (inactive); in [7], 18.9 µM (inactive); in [8], 9.53 µM (inactive); in assay [9], 24.6 µM (inactive); in assay [10], 39.1 µM (inactive). Further, the GI50 in assay [12] is > 100 µM (inactive); in assay [13], 22.6 µM.
Take `CCc1cccc(C(C)C)c1N1C(=O)C(=O)C(c2nc3ccccc3s2)C(=O)C1=O`: the GI50 in [1] is > 50 µM (inactive); in [14], > 50 µM (inactive); in assay [2], > 39.3 µM (inactive); in [3], 16.8 µM (inactive); in [4], > 50 µM (inactive); in assay [5] it was > 50 µM (inactive). Moreover, the GI50 in assay [6] was > 50 µM (inactive); in assay [15], > 50 µM (inactive); in assay [7], > 25.5 µM (inactive); in [8], 11.3 µM (inactive); in [9] it was > 50 µM (inactive); in [10], > 46.2 µM (inactive). Besides, the figures for the GI50 in [12] and in [13] were > 26.2 µM (inactive) and 29.4 µM, respectively.
Take `Cc1ccc(NCCO)cc1`: the GI50 in [1], in assay [2], in [3], in assay [4], in [16] and in [5] was > 100 µM (inactive) in each case. Moreover, the GI50 in assay [6] is > 100 µM (inactive); in [15] it was > 100 µM (inactive); in assay [7], > 100 µM (inactive); in assay [8] it was > 100 µM (inactive); in [9], 97.1 µM (inactive); in [10] it was > 100 µM (inactive). Further, the GI50 in assay [11] was > 100 µM (inactive); in [12], > 100 µM (inactive); in assay [13], greater than 100 µM.
As for `c1ccc(P(=Nc2ccccc2N=P(c2ccccc2)(c2ccccc2)c2ccccc2)(c2ccccc2)c2ccccc2)cc1`, the GI50 is 0.528 µM (active) in assay [1]; 0.986 µM (active) in assay [14]; 0.386 µM (active) in assay [2]; 1.65 µM (inactive) in [3]; > 100 µM (inactive) in assay [4]; 0.337 µM (active) in [16]. In addition, the GI50 in assay [5] was 1.53 µM (inactive); in assay [6] it was > 100 µM (inactive); in assay [15], 1.25 µM (inactive); in assay [7], 0.164 µM (active); in [8], 1.3 µM (inactive); in assay [9] it was 0.178 µM (active). Moreover, the GI50 is 0.612 µM (active) in assay [10] and 0.256 µM (active) in [12].
`COC(=O)c1cc(Cl)ccc1NC(=O)c1ccc([N+](=O)[O-])cc1`: the GI50 was 42.3 µM (inactive) in assay [1]; 17.5 µM (inactive) in [14]; 39.2 µM (inactive) in assay [2]; 20.3 µM (inactive) in assay [16]; > 100 µM (inactive) in [5]; 28.2 µM (inactive) in [6]. Besides, the GI50 in assay [15] was 3.33 µM (inactive); in [7], 15.6 µM (inactive); in assay [8], 22.8 µM (inactive); in assay [12], 23 µM (inactive); in assay [13], 32.2 µM.
In the case of `O=C(Cc1nc2ccc([N+](=O)[O-])cc2nc1O)C(=O)Nc1ccccc1[N+](=O)[O-]`, the GI50 in assay [1], in [14], in [2], in assay [3], in assay [4] and in assay [16] was > 100 µM (inactive) throughout. Further, the GI50 in assay [5], in [6], in [15], in assay [7], in assay [8] and in assay [9] was > 100 µM (inactive) throughout. Moreover, the GI50 is 60.7 µM (inactive) in assay [10], > 100 µM (inactive) in assay [12] and 44.1 µM in [13].
On to `Nc1nc[n+](Cc2ccccc2CCO)c2[nH]cnc12`, for which the GI50 in [1] is > 100 µM (inactive); in assay [14], > 100 µM (inactive); in assay [2], > 100 µM (inactive); in [3], > 100 µM (inactive); in assay [4] it was > 100 µM (inactive); in [16] it was 36.5 µM (inactive). For the same compound, the GI50 in assay [5], in assay [6], in assay [15], in assay [7], in [8] and in [9] was > 100 µM (inactive) each time. Besides, the results for the GI50 in [10], in [12] and in assay [13] were > 100 µM (inactive), > 100 µM (inactive) and greater than 100 µM, respectively.
